Assays:
[1] = i.v., s.c., i.m., rectal, sublingual or intranasal route; cited from earlier work
[2] = continuous subcutaneous infusion, 2-5 mg/hour; cited from earlier work
[3] = in vitro cell permeation study with guinea-pig skin (Type III patch); assay type: in vitro ADME
Description: Then, three particular non-limiting examples of the pharmaceutical composition used to form the matrix of a Type III patch will be illustrated (FIG. 3). The Type III patch, containing a matrix made up of these three types of formulations, will then be “tested” on guinea-pig skin, to analyse the permeation of the active principle, both with regard to the accumulation of active principle over 48 hours (FIG. 4) and with regard to the flow (also over 48 hours, FIG. 5).

[4] = activity compared with APO; conditions: greater than that of APO
Description: For this reason, when said compounds are given at suitable doses over 24 hours, effects which are rather more beneficial than those of APO are obtained.

[5] = toxicity compared with APO
[6] = half-life compared with APO
[7] = accelerated stability test of the patch formulation; assay type: physicochemical; conditions: with antioxidant (sodium metabisulphite), 15 days at 40° C. and 75% RH

SMILES	latent period (attack) [1]	local side effect at the infusion site [2]	skin permeability [3]	activity relative to APO [4] [times]	toxicity relative to APO [5]	half-life relative to APO [6]	chemical stability in the formulation of the patch [7]
CN1CCc2cccc3c2[C@H]1Cc1ccc(O)c(O)c1-3 [Apomorphine]	about 15 ′	subcutaneous granulomas form around the infusion site	–	–	–	–	–
CCCN1CCc2cccc3c2[C@H]1Cc1ccc(O)c(O)c1-3.Cl [Compound (1), R(−)-propylnorapomorphine hydrochloride]	–	–	sufficient	10	lower	greater	demonstrated
CCCN1CCc2cccc3c2[C@@H]1Cc1ccc(O)c(O)c1-3.Cl [Compound (2), S(+)-propylnorapomorphine hydrochloride]	–	–	–	10	lower	greater	–

— patent US6592893B1, “Transdermal patch and topical compositions comprising propylnorapomorphine” (priority 1998, dated 2003)
